Read-outs that look alike come from different tables or passages of the source.
What was measured:
[1] = molecular target: tubulin (Bos taurus, UniProt P81947+Q6B856); experiment: Aberrant tubulin assembly; details: for extent of aberrant assembly reaction (turbidity), % of its maximum: within 20 min at 0 °C, 10 μM compound, 10 μM tubulin, 0.6 M glutamate, 1.0 mM MgCl2, 50 μM GTP
[2] = tested on: αβ-tubulin dimer; experiment: Binding of radiolabeled compounds to αβ-tubulin dimer; design: species or system bovine; details: radiolabeled compound
[3] = tested on: tubulin; assay type: binding, bovine; details: for maximum stoichiometry of compound incorporation into aberrant polymer: 80 μM compound; for compound incorporated into induced polymers, as little as: substoichiometric reactions (abstract)
[4] = tested on: tubulin; experiment: Polymer formation without GTP at 0 °C; assay type: biochemical, bovine; details: no GTP; for spiral formation (centrifugation study, Fig. 7A): 10 μM tubulin, concentrations up to 30 μM; for % tubulin in polymer ± SE: single compound 30 μM, 20 min, 1.0 mg/mL tubulin
[5] = tested on: tubulin; experiment: Inhibition of MAP-dependent microtubule assembly; assay type: biochemical, bovine
[6] = tested on: cultured cells; details: cited from earlier work
[7] = tested on: tubulin; details: reported by David et al.; cited from earlier work
[8] = 5 μM compound, 10 μM tubulin, 22 °C, 30 min
[9] = 10 μM radiolabeled ligand alone (Table 3)
[10] = compound and tubulin equimolar (10 μM each)

Sequence of tubulin (Bos taurus, UniProt P81947+Q6B856) (P81947 whole entry): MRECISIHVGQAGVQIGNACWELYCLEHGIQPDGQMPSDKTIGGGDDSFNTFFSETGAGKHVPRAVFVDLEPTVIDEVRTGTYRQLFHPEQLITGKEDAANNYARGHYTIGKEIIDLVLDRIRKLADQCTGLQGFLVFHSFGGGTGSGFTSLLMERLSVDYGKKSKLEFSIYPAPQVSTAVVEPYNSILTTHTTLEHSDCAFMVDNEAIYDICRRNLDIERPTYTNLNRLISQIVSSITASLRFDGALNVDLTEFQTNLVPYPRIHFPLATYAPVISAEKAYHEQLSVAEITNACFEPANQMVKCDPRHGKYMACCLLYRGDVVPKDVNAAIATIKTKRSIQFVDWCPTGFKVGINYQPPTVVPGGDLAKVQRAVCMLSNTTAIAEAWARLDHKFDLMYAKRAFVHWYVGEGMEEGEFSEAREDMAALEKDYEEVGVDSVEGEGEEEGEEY
Sequence of tubulin (Bos taurus, UniProt P81947+Q6B856) (Q6B856 whole entry): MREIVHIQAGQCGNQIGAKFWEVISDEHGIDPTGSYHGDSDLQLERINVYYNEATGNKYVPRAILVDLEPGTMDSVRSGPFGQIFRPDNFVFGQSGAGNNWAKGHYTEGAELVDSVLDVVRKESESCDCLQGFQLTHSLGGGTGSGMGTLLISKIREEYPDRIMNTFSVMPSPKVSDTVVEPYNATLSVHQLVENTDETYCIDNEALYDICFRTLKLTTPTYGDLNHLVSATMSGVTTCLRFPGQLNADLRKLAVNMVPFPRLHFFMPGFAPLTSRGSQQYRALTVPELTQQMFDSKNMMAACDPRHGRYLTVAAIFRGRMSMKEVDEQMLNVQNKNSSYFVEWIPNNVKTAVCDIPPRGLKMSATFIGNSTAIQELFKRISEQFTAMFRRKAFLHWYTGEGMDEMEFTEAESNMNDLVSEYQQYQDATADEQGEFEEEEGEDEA

With N#Cc1c(-c2ccc(F)cc2)c(-c2ccc(F)cc2)nn(Cc2nn[nH]n2)c1=O [NSC 613241] the “delay of aberrant assembly after addition of compound” value ([1]; 0 °C, 0.6 M monosodium glutamate, 50 μM GTP, 1 mM MgCl2, 2% dimethyl sulfoxide) was “about 1 min”, the “extent of aberrant assembly reaction (turbidity), % of its maximum” value [1] was 30–35% and the “binding to the αβ-tubulin dimer” value [2] was “unable to demonstrate binding”. For the same compound, the “% of the tubulin in polymer pellet” value [3, 8] was 73%, the “% tubulin recovered in pellet” value ([3]; 10 μM [3H](−)-rhazinilam plus 80 μM nonradiolabeled inhibitor) was 89 ± 6.4% and the “% tubulin recovered in pellet” value [3, 9] was 72 ± 5.4%. The “Ligand bound/tubulin in aberrant polymer ± SD” value ([3]; 10 μM radiolabeled ligand alone, 22 °C, 30 min (Table 3)) was 0.15 ± 0.013, the “% of the tubulin in polymer pellet” value ([3]; 20 μM compound, 10 μM tubulin) was “about 90%” and the “% of the tubulin in polymer” value ([3]; 40 μM compound, 10 μM tubulin) was ~100%. The “stoichiometry of compound to tubulin in the pellets” value (from here on “stoichiometry … in the pellets”) ([3]; 40 μM compound, 10 μM tubulin) was 0.42, the “maximum stoichiometry of compound incorporation into aberrant polymer” value ([3]; 10 μM tubulin) was 0.62 and the “stoichiometry … in the pellets” value [3, 10] was 0.11. The “compound incorporated into induced polymers, as little as” value [3] was 0.1–0.2 mol compound/mol of tubulin, the “spiral formation (centrifugation study, Fig. 7A)” value [4] was “minimal” and the “% tubulin in polymer ± SE” value [4] was 0 ± 2%.

With Cc1c(-c2ccccc2)nn(CC(=O)O)c(=O)c1C#N [NSC 608602] the “effect on microtubule assembly” value [5] was “no significant effect on microtubule assembly”.

For (−)-Rhazinilam [reference compound], the “extent of aberrant assembly reaction (turbidity), % of its maximum” value [1] is given as “little or no change in turbidity”, the “IC50 values in treated cells” value [6] is given as “low μM range” and the “binding to the αβ-tubulin dimer” value [2] is given as “unable to demonstrate binding”. For the same compound, the “% of the tubulin in polymer pellet” value [3, 8] was 53%, the “% tubulin recovered in pellet” value ([3]; 10 μM [3H]NSC 613241 plus 80 μM nonradiolabeled inhibitor) was 95 ± 5.2% and the “% tubulin recovered in pellet” value [3, 9] was 37 ± 5.1%. The “% of the tubulin in polymer pellet” value ([3]; 20 μM compound, 10 μM tubulin) was “about 90%”, the “% of the tubulin in polymer” value ([3]; 40 μM compound, 10 μM tubulin) was ~100% and the “stoichiometry … in the pellets” value ([3]; 40 μM compound, 10 μM tubulin) was 0.47. For the same compound, the “maximum stoichiometry of compound incorporation into aberrant polymer” value ([3]; 10 μM tubulin) was 0.68, the “stoichiometry … in the pellets” value [3, 10] was 0.13 and the “compound incorporated into induced polymers, as little as” value [3] was 0.1–0.2 mol compound/mol of tubulin. For the same compound, the “spiral formation (centrifugation study, Fig. 7A)” value [4] was “minimal” and the “% tubulin in polymer ± SE” value [4] was 0 ± 2%.

With N#Cc1c(-c2ccccc2)c(-c2ccccc2)nn(Cc2nn[nH]n2)c1=O [NSC 608593] the “% tubulin in polymer ± SE” value [4] was 0 ± 1%.

In the case of COc1cc2cc(c1Cl)N(C)C(=O)C[C@H](OC(=O)[C@H](C)N(C)C(C)=O)[C@]1(C)O[C@H]1[C@H](C)[C@@H]1C[C@@](O)(NC(=O)O1)[C@H](OC)/C=C/C=C(\C)C2 [Maytansine], the “inhibition of (−)-rhazinilam aberrant assembly reaction” value [7] is given as “inhibited”.

With Cc1nn(CC(=O)O)c(=O)c(C#N)c1-c1ccccc1 [NSC 608600] the “effect on microtubule assembly” value [5] was “no significant effect on microtubule assembly”.

For CC[C@]1(O)C[C@@H]2CN(CCc3c([nH]c4ccccc34)[C@@](C(=O)OC)(c3cc4c(cc3OC)N(C)[C@H]3[C@@](O)(C(=O)OC)[C@H](OC(C)=O)[C@]5(CC)C=CCN6CC[C@]43[C@@H]65)C2)C1 [Vinblastine], the “inhibition of (−)-rhazinilam aberrant assembly reaction” value [7] is listed as “inhibited”.

From paper PMC4955782 (Archives of biochemistry and biophysics, 2016)
